Converted amounts (≈) assume the structure as drawn. The source made the active and inactive calls. No cut-off for these calls is given here. Starred links: 1 amine or outer side, 2 acyl side, 3 side chain; linkers in the order of their positions; H or OH if unused. Positions of bridges follow the written chain, without caps; N, C: chain ends. Non-standard residues stand in square brackets, D forms with d. Residues, ends and D or L forms follow the SMILES beside them. *: point of attachment. hTyr(3S-OH,4S-OH,3'-OSO3H) = N[C@H](C(=O)O)[C@H](O)[C@@H](O)c1ccc(O)c(OS(=O)(=O)O)c1; Orn(4R-OH,5R-OH) = O=C([C@H](C[C@@H](O)[C@@H](O)N[*:3])N[*:1])[*:2]; Pro(3S-OH,4S-Me) = C[C@H]1CN[C@H](C(=O)O)[C@H]1O; X1 = CCCCCOc1ccc(-c2cc(-c3ccc(C(=O)*)cc3)no2)cc1; Gln(3R-OH) = NC(=O)C[C@@H](O)[C@H](N)C(=O)O; Hyp = O=C(O)[C@@H]1C[C@@H](O)CN1
Assays:
Aspergillus fumigatus [1] = assay: Antifungal activity against Aspergillus fumigatus ATCC 13073; type: functional
Aspergillus fumigatus [2] = assay: Antifungal activity against Aspergillus fumigatus ATCC 13073 infected in immunosuppressed Swiss Webster mouse assessed as increase in survival rate at 5 mg/kg, iv for 6 days treated 24 hrs postinfection measured after 28 days; type: functional, organism-based; design: dose 5 mg/kg
Kidney [3] = assay: Drug level in immunosuppressed Swiss Webster mouse kidney with pulmonary aspergillosis assessed as compound level per gram of tissue at 5 mg/kg/day, iv for 5 days measured on day 6; type: ADME, organism-based; design: route intravenous; settings: in vivo, 120 h
Spleen [4] = assay: Drug level in immunosuppressed Swiss Webster mouse spleen with pulmonary aspergillosis assessed as compound level per gram of tissue at 5 mg/kg/day, iv for 5 days measured on day 6; type: ADME, organism-based; design: route intravenous; settings: in vivo, 120 h
Aspergillus fumigatus [5] = assay: Antifungal activity against Aspergillus fumigatus ATCC 13073 infected Swiss Webster mouse pulmonary aspergillosis model assessed as organism survival at 5 mg/kg/day, iv for 5 days dosed 2 hrs post challenge; type: functional
Aspergillus fumigatus [6] = assay: Antifungal activity against Aspergillus fumigatus ATCC 13073 infected in immunosuppressed Swiss Webster mouse assessed as survival rate at 5 mg/kg, iv for 6 days treated 24hrs postinfection measured after 28 days; type: functional
Aspergillus fumigatus [7] = assay: Antifungal activity against Aspergillus fumigatus ATCC 13073 infected in immunosuppressed Swiss Webster mouse assessed as survival rate at 15 mg/kg, iv for 6 days measured after 28 days; type: functional
Aspergillus fumigatus [8] = assay: Antifungal activity against Aspergillus fumigatus ATCC 13073 infected in immunosuppressed Swiss Webster mouse assessed as reduction in fungal burden in kidney at 5 mg/kg, iv for 6 days measured 24 hrs after last dose relative to control; type: functional, organism-based; design: dose 5 mg/kg
Aspergillus fumigatus [9] = assay: Antifungal activity against Aspergillus fumigatus ATCC 13073 infected in immunosuppressed Swiss Webster mouse assessed as reduction in fungal burden in spleen at 5 mg/kg, iv for 6 days treated 24 hrs postinfection measured 24 hrs after last dose relative to control; type: functional, organism-based; design: dose 5 mg/kg
Aspergillus fumigatus [10] = assay: Antifungal activity against Aspergillus fumigatus ATCC 13073 infected in immunosuppressed Swiss Webster mouse assessed as reduction in fungal burden in spleen at 10 mg/kg, iv for 6 days treated 24 hrs postinfection measured 24 hrs after last dose relative to control; type: functional, organism-based; design: dose 10 mg/kg
Aspergillus fumigatus [11] = assay: Antifungal activity against Aspergillus fumigatus ATCC 13073 infected in immunosuppressed Swiss Webster mouse assessed as reduction in fungal burden in spleen at 15 mg/kg, iv for 6 days treated 24 hrs postinfection measured 24 hrs after last dose by galactomnnan assay relative to control; type: functional, organism-based; design: dose 15 mg/kg
Spleen [12] = assay: Drug level in immunosuppressed Swiss Webster mouse spleen with disseminated aspergillosis assessed as compound level per gram of tissue at 5 mg/kg/day, iv for 7 days measured on day 8; type: ADME, organism-based; design: route intravenous; settings: in vivo, 168 h
Spleen [13] = assay: Drug level in immunosuppressed Swiss Webster mouse spleen with disseminated aspergillosis assessed as compound level per gram of tissue at 10 mg/kg/day, iv for 7 days measured on day 8; type: ADME, organism-based; design: route intravenous; settings: in vivo, 168 h
Spleen [14] = assay: Drug level in immunosuppressed Swiss Webster mouse spleen with disseminated aspergillosis assessed as compound level per gram of tissue at 15 mg/kg/day, iv for 7 days measured on day 8; type: ADME, organism-based; design: route intravenous; settings: in vivo, 168 h
Kidney [15] = assay: Drug level in immunosuppressed Swiss Webster mouse Kidney with disseminated aspergillosis assessed as compound level per gram of tissue at 5 mg/kg/day, iv for 7 days measured on day 8; type: ADME, organism-based; design: route intravenous; settings: in vivo, 168 h
Kidney [16] = assay: Drug level in immunosuppressed Swiss Webster mouse Kidney with disseminated aspergillosis assessed as compound level per gram of tissue at 10 mg/kg/day, iv for 7 days measured on day 8; type: ADME, organism-based; design: route intravenous; settings: in vivo, 168 h
Kidney [17] = assay: Drug level in immunosuppressed Swiss Webster mouse Kidney with disseminated aspergillosis assessed as compound level per gram of tissue at 15 mg/kg/day, iv for 7 days measured on day 8; type: ADME, organism-based; design: route intravenous; settings: in vivo, 168 h
Aspergillus fumigatus [18] = assay: Antifungal activity against Aspergillus fumigatus ATCC 13073 infected in immunosuppressed Swiss Webster mouse assessed as reduction in fungal burden in kidney at 5 mg/kg, iv for 3 days treated 4 days postinfection relative to control; type: functional, organism-based; design: dose 5 mg/kg
Aspergillus fumigatus [19] = assay: Antifungal activity against Aspergillus fumigatus ATCC 13073 infected in immunosuppressed Swiss Webster mouse assessed as reduction in fungal burden in spleen at 5 mg/kg, iv for 3 days treated 4 days postinfection relative to control; type: functional, organism-based; design: dose 5 mg/kg

CC[C@H](C)C[C@H](C)CCCCCCCCC(=O)N[C@H]1C[C@@H](O)[C@@H](NCCN)NC(=O)[C@@H]2[C@@H](O)CCN2C(=O)[C@H]([C@H](O)CCN)NC(=O)[C@H]([C@H](O)[C@@H](O)c2ccc(O)cc2)NC(=O)[C@@H]2C[C@@H](O)CN2C(=O)[C@H]([C@@H](C)O)NC1=O [CASPOFUNGIN]
MIC (Aspergillus fumigatus [1]): 0.31 µg/mL (≈ 0.284 µM)
Activity (Aspergillus fumigatus [2]): Active
tissue concentration (Kidney [3]): 14.4 µg/g
tissue concentration (Spleen [4]): 31.6 µg/g
survival at 5 mg/kg/day (Aspergillus fumigatus [5]): 0%

CCCCCOc1ccc(-c2cc(-c3ccc(C(=O)N[C@H]4C[C@@H](O)[C@@H](O)NC(=O)[C@@H]5[C@@H](O)[C@@H](C)CN5C(=O)[C@H]([C@H](O)CC(N)=O)NC(=O)[C@H]([C@H](O)[C@@H](O)c5ccc(O)c(OS(=O)(=O)O)c5)NC(=O)[C@@H]5C[C@@H](O)CN5C(=O)[C@H]([C@@H](C)O)NC4=O)cc3)no2)cc1 [MICAFUNGIN] (X1-[Orn(4R-OH,5R-OH)]T[Hyp][hTyr(3S-OH,4S-OH,3'-OSO3H)][Gln(3R-OH)][Pro(3S-OH,4S-Me)]; lactam 1-C)
MIC (Aspergillus fumigatus [1]): 0.31 µg/mL (≈ 0.244 µM)
survival at 5 mg/kg (Aspergillus fumigatus [6]): 86%
survival at 15 mg/kg (Aspergillus fumigatus [7]): 57%
Activity (Aspergillus fumigatus [8]): Active
Activity (Aspergillus fumigatus [9]): Active
Activity (Aspergillus fumigatus [10]): Active
Activity (Aspergillus fumigatus [11]): Active
tissue concentration (Spleen [12]): 17.9 µg/g
tissue concentration (Spleen [13]): 33.6 µg/g
tissue concentration (Spleen [14]): 32.7 µg/g
tissue concentration (Kidney [15]): 5.6 µg/g
tissue concentration (Kidney [16]): 25.2 µg/g
tissue concentration (Kidney [17]): 22.5 µg/g
Activity (Aspergillus fumigatus [18]): inactive
Activity (Aspergillus fumigatus [19]): inactive

— ChEMBL document CHEMBL1687768, “Liposomal amphotericin B and echinocandins as monotherapy or sequential or concomitant therapy in murine disseminated and pulmonary Aspergillus fumigatus infections” (Antimicrob Agents Chemother, 2010)
